Test results as given in patent US20100168102A9, “Amide Derivatives as Kinase Inhibitors” (Devgen NV, priority 2005, published 2010).
Counter-ions that a name gives are not always drawn. Like-named read-outs stand apart in the source and are kept apart here.

Key:
PKC epsilon = target: T1, PKC epsilon (Homo sapiens, UniProt Q02156); test: Biochemical assay for PKC epsilon (fluorescence polarization, Protein Kinase C Assay Kit, Red); details: read-out: IC50 μM PKCε
T1 construct: purchased Invitrogen P2282
T1 sequence (Q02156 1-737): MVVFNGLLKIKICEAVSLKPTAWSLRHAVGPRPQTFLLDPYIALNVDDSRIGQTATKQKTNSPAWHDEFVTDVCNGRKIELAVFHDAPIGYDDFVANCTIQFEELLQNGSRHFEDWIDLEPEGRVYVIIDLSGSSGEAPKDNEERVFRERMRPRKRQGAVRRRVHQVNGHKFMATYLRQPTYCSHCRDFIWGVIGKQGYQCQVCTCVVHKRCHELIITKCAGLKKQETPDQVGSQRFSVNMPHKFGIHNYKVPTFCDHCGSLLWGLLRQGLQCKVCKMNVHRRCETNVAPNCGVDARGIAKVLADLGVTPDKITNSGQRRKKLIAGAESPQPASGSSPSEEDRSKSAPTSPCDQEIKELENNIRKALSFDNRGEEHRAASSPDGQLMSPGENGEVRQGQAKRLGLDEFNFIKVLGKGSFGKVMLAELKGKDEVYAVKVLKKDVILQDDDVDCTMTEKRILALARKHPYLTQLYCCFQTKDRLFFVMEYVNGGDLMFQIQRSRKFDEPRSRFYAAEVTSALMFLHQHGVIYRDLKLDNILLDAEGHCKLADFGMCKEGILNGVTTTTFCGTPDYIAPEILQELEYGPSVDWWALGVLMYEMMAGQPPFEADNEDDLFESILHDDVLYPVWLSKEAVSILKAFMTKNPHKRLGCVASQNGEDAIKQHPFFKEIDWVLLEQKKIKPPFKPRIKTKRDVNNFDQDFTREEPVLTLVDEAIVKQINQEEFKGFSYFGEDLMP
How it was run: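 PKC epsilon at 10 ng/ml final was preincubated 30 min at room temperature with compound in HEPES pH 7.4 with DTT and Triton X-100. ATP/protein substrate was then added in buffer with MgCl2 and CaCl2 for 80 min. The reaction was stopped with EDTA, phosphorylation was detected by fluorescence polarization with rhodamine tracer and anti-phosphoserine antibody, and IC50 values came from curve fits.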

human ROCKα/ROCKII mix = target: T2, human ROCKα/ROCKII mix (Homo sapiens, UniProt O75116); test: Biochemical assay for ROCK (fluorescence polarization, ROCK IMAP Kit)
T2 construct: purchased Upstate Biotechnology 14-451

[1] = Table 2, compounds of Formula XIII
[2] = compounds of Formula XIV, Table 3

T2 sequence (O75116 11-552 limits assumed): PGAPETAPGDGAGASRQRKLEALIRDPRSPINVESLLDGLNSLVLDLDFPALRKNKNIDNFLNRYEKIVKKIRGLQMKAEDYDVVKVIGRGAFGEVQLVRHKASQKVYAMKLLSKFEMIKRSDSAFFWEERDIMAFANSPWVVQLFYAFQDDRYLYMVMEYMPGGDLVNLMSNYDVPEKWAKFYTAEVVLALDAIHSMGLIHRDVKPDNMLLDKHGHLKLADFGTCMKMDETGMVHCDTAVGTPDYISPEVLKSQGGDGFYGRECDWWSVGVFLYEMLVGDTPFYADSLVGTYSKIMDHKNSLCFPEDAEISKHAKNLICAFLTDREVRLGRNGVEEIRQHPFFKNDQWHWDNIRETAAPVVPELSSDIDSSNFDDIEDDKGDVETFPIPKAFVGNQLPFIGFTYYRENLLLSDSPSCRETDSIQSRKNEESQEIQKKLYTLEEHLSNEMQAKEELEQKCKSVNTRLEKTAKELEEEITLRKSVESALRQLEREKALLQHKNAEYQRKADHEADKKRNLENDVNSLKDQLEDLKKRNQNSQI

Row | Compound | IC50 (PKC epsilon) [µM] | IC50 (human ROCKα/ROCKII mix) [µM] | IC50 (PKC epsilon; [1]) [µM] | IC50 (human ROCKα/ROCKII mix; [1]) [µM] | also measured
1 | NC(c1ccc(C(=O)Nc2ccncc2)cc1)C1CCCN1C(=O)Cc1c(F)cccc1F (stereo not drawn) [Compound 584, 4-(Amino-{1-[2-(2,6-difluoro-phenyl)-acetyl]-pyrrolidin-2-yl}-methyl)-N-pyridin-4-yl-benzamide] | 5 to 50 | 0.5 to 5 | – | – | –
2 | NC(CNC(=O)Cc1csc(-c2ccccc2)n1)c1ccc(C(=O)Nc2ccncc2)cc1 (stereo not drawn) [Compound 154, 4-{1-Amino-2-[2-(2-phenyl-thiazol-4-yl)-acetylamino]-ethyl}-N-pyridin-4-yl-benzamide] | – | – | 5 to 50 | 0.05 to 0.5 | –
3 | NC(CNC(=O)Cc1ccccn1)c1ccc(C(=O)Nc2ccncc2)cc1 (stereo not drawn) [Compound 150, 4-[1-Amino-2-(2-pyridin-2-yl-acetylamino)-ethyl]-N-pyridin-4-yl-benzamide] | – | – | 5 to 50 | 0.5 to 5 | –
4 | 4-{1-Amino-2-[methyl-(2- naphthalen-2-yl-acetyl)- amino]-ethyl}- N-pyridin-4-yl-benzamide [Compound 434] | 0.5 to 5 | 0.05 to 0.5 | – | – | –
5 | 4-(1-amino-2- cyclohexylcarbamoyl-ethyl)- N-pyridin-4-yl-benzamide [Compound 172] | – | – | – | – | IC50 (PKC epsilon; [2]): 0.5 to 5 µM; IC50 (human ROCKα/ROCKII mix; [2]): 0.05 to 0.5 µM
6 | 4-{1-Amino-2-[(2- cyclopentyl-2-phenyl- acetyl)-methyl- amino]-ethyl}- N-pyridin-4-yl-benzamide [Compound 455] | 5 to 50 | 5 to 50 | – | – | –
7 | CS(=O)(=O)c1ccc(CNC(=O)CC(N)c2ccc(C(=O)Nc3ccncc3)cc2)cc1 (stereo not drawn) [Compound 275, 4-[1-Amino-2-(4-methanesulfonyl-benzylcarbamoyl)-ethyl]-N-pyridin-4-yl-benzamide] | – | – | – | – | IC50 (PKC epsilon; [2]): 0.5 to 5 µM; IC50 (human ROCKα/ROCKII mix; [2]): 0.05 to 0.5 µM
8 | N[C@H](CC(=O)NCc1ccc(F)cc1)c1ccc(C(=O)Nc2ccncc2)cc1 [Compound 401, 4-[(R)-1-Amino-2-(4-fluoro-benzylcarbamoyl)-ethyl]-N-pyridin-4-yl-benzamide dihydrochloric acid salt] | < 0.05 | 0.05 to 0.5 | – | – | –
9 | NC(CC(=O)NCCc1ccccc1F)c1ccc(C(=O)Nc2ccncc2)cc1 (stereo not drawn) [Compound 305, 4-{1-Amino-2-[2-(2-fluoro-phenyl)-ethylcarbamoyl]-ethyl}-N-pyridin-4-yl-benzamide] | – | – | – | – | IC50 (PKC epsilon; [2]): 0.5 to 5 µM; IC50 (human ROCKα/ROCKII mix; [2]): 0.05 to 0.5 µM
10 | NC(CNC(=O)c1ccc(-c2ccccc2)cc1)c1ccc(C(=O)Nc2ccncc2)cc1 (stereo not drawn) [Compound 88, Biphenyl-4-carboxylic acid {2-amino-2-[4-(pyridin-4-ylcarbamoyl)-phenyl]-ethyl}-amide] | – | – | 5 to 50 | 0.5 to 5 | –
11 | NC(c1ccc(C(=O)Nc2ccncc2)cc1)C1CCCN1C(=O)C1(c2ccc(F)c(F)c2)CCC1 (stereo not drawn) [Compound 588, 4-(Amino-{1-[1-(3,4-difluoro-phenyl)-cyclobutanecarbonyl]-pyrrolidin-2-yl}-methyl)-N-pyridin-4-yl-benzamide] | 0.5 to 5 | 0.5 to 5 | – | – | –
12 | NC(CNC(=O)COc1ccccc1)c1ccc(C(=O)Nc2ccncc2)cc1 (stereo not drawn) [Compound 156, 4-[1-Amino-2-(2-phenoxy-acetylamino)-ethyl]-N-pyridin-4-yl-benzamide] | – | – | 0.05 to 0.5 | 0.05 to 0.5 | –
13 | CC(C)(C(=O)NCC(N)c1ccc(C(=O)Nc2ccncc2)cc1)c1ccc(Cl)c(Cl)c1 (stereo not drawn) [Compound 380, 4-{1-Amino-2-[2-(3,4-dichloro-phenyl)-2-methyl-propionylamino]-ethyl}-N-pyridin-4-yl-benzamide] | – | – | < 0.05 | 0.05 to 0.5 | –
14 | N[C@@H](CC(=O)NC1COc2ccccc21)c1ccc(C(=O)Nc2ccncc2)cc1 (mixture of isomers) [Compound 404, 4-[(S)-1-Amino-2-(2,3-dihydro-benzofuran-3-ylcarbamoyl)-ethyl]-N-pyridin-4-yl-benzamide dihydrochloric acid salt] | 0.5 to 5 | 0.05 to 0.5 | – | – | –
15 | NC(CNC(=O)C1(c2ccc(Cl)c(Cl)c2)CCC1)c1ccc(C(=O)Nc2ccncc2)cc1 (stereo not drawn) [Compound 381, 4-(1-Amino-2-{[1-(3,4-dichloro-phenyl)-cyclobutanecarbonyl]-amino}-ethyl)-N-pyridin-4-yl-benzamide] | – | – | 0.05 to 0.5 | 0.05 to 0.5 | –
